Assays:
[1] = biological target: BRD2 (His-Brd2(60-472)) (Homo sapiens (Human), UniProt P25440); experiment: TR-FRET in-vitro binding assay for BRD2; settings: single determination or n ≧ 2 independent determinations, read-out: Biochemical IC50 BRD2
How it was run: (§1)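 Compounds were serially diluted over eight concentrations and added to wells. TR-FRET signal was then measured.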

[2] = biological target: BRD3 (His-Brd3(20-477)) (Homo sapiens (Human), UniProt Q15059); experiment: TR-FRET in-vitro binding assay for BRD3; settings: single determination or n ≧ 2 independent determinations, read-out: Biochemical IC50 BRD3
Chain of BRD3 (His-Brd3(20-477)) (Q15059 20-477): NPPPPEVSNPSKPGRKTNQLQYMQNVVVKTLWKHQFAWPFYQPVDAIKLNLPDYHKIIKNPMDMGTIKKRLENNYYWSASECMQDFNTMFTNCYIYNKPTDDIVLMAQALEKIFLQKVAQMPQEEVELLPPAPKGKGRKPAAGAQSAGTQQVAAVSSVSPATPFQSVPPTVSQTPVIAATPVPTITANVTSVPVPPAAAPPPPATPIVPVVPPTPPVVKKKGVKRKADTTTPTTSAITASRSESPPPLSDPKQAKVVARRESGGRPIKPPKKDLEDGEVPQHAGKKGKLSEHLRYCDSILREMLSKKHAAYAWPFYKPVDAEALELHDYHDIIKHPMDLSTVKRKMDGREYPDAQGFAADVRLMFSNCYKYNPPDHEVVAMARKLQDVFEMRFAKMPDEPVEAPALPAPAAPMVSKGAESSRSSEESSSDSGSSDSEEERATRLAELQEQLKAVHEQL
How it was run: as §1

[3] = tested on: K-562 cells; experiment: Cell growth inhibition assay (CellTiter-Glo), K-562; settings: for GI50: Homo sapiens, K562, read-out: K-562 GI50; for K-562 TGI: K-562 cells, total growth inhibition, CellTiter-Glo;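 on all read-outs here: cellular ATP measured by luminescence after 4 days of exposure, 3-fold dilution series from 10 µM, DMSO vehicle-treated cells define 100%, cell-free medium wells −100%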
[4] = biological target: CREBBP bromodomain (His-CREBBP(1081-1197)) (Homo sapiens (Human), UniProt Q92793); experiment: AlphaScreen in-vitro binding assay for CREBBP; settings: single determination or n ≧ 2 independent determinations, read-out: Biochemical IC50 CREBBP
Chain of CREBBP bromodomain (His-CREBBP(1081-1197)) (Q92793 1081-1197): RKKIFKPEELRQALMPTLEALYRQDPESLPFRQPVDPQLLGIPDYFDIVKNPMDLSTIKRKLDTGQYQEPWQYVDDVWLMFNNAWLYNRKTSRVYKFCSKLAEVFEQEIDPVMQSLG
How it was run: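 Reactions at 30 °C for 35 min, then Ni-chelate acceptor and streptavidin donor beads in HEPES pH 7.5, NaCl, Tween20, BSA, 60 min at room temperature. Eight-point compound series; IC50 by non-linear regression of percent inhibition.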

[5] = tested on: MV-4-11 cells; experiment: Cell growth inhibition assay (CellTiter-Glo), MV-4-11; settings: for GI50: Homo sapiens, MV4-11, read-out: MV-4-11 GI50; for MV-4-11 TGI: MV-4-11 cells, total growth inhibition, CellTiter-Glo;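 on all read-outs here: cellular ATP luminescence after 4 days, 3-fold dilution series from 10 µM top dose, vehicle (0.1% DMSO) set to 100%, cell-free medium set to −100%, day 0 corrected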
[6] = biological target: BRD4 (His-Brd4(44-477)) (Homo sapiens (Human), UniProt O60885); experiment: TR-FRET in-vitro binding assay for BRD4; settings: single determination or n ≧ 2 independent determinations, read-out: Biochemical IC50 BRD4
How it was run: as §1

[7] = tested on: THP-1 cells; experiment: Cell growth inhibition assay (CellTiter-Glo), THP-1; settings: for GI50: Homo sapiens, THP-1, read-out: THP-1 GI50; for THP-1 TGI: THP-1 cells, total growth inhibition, CellTiter-Glo;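 on all read-outs here: viability read as cellular ATP luminescence after 4 days, 3-fold dilution series from 10 µM, DMSO vehicle-treated cells taken as 100%, cell-free medium wells as −100%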

Chain of BRD2 (His-Brd2(60-472)) (P25440 60-472): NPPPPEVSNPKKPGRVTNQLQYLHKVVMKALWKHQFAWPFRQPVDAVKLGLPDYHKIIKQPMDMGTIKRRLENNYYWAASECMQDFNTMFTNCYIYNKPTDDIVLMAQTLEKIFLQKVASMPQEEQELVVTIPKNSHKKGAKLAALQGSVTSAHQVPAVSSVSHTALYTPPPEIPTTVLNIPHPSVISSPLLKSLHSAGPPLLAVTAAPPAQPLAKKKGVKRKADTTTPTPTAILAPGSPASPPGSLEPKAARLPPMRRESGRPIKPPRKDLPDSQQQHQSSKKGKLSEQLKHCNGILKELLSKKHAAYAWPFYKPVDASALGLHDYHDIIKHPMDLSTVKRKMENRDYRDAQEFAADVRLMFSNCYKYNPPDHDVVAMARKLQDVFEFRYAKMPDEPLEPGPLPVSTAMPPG

Row | SMILES | IC50 [1] [nM] | IC50 [2] [nM] | GI50 [3] [nM] | IC50 [4] [nM] | GI50 [5] [nM] | IC50 [6] [nM] | GI50 [7] [nM] | K-562 TGI [3] [nM] | MV-4-11 TGI [5] [nM] | THP-1 TGI [7] [nM]
1 | COc1ccc(-c2nc3c(n2C(C)C)C(c2ccc(Cl)cc2)N(c2cc(C)c4nnn(C)c4n2)C3=O)cn1 (stereo not shown) [Example 138, 6-(4-chlorophenyl)-5-(3,7-dimethyl-3H-[1,2,3]triazolo[4,5-b]pyridin-5-yl)-1-isopropyl-2-(6-methoxypyridin-3-yl)-5,6-dihydropyrrolo[3,4-d]imidazol-4(1H)-one] | 26 | 11 | 37.2 | > 37000 | 7.97 | 11 | 9.37 | >10000 | 13 | 23.6
2 | Cc1nc2c([nH]1)C(c1ccc(Cl)cc1)N(c1cc(C)c3nnc(C(F)F)n3c1)C2=O (stereo not shown) [Example 139, 6-(4-chlorophenyl)-5-(3-(difluoromethyl)-8-methyl-[1,2,4]triazolo[4,3-a]pyridin-6-yl)-2-methyl-5,6-dihydropyrrolo[3,4-d]imidazol-4(1H)-one] | 86 | 42 | 214 | > 37000 | 57.5 | 32.5 | 40.7 | >10000 | 99.2 | 115.5
3 | COc1ncccc1-c1nc2c([nH]1)C(c1ccc(Cl)cc1)N(c1cc(C)c3nnc(C(F)F)n3c1)C2=O (stereo not shown) [Example 140, 6-(4-chlorophenyl)-5-(3-(difluoromethyl)-8-methyl-[1,2,4]triazolo[4,3-a]pyridin-6-yl)-2-(2-methoxypyridin-3-yl)-5,6-dihydropyrrolo[3,4-d]imidazol-4(1H)-one] | 42 | 28 | 180 | > 37000 | 38.4 | 29 | 63.6 | >10000 | 66.8 | 124.5
4 | COc1ccc(-c2nc3c([nH]2)C(c2ccc(Cl)cc2)N(c2cc(C)c4nnc(C(F)F)n4c2)C3=O)cn1 (stereo not shown) [Example 141, 6-(4-chlorophenyl)-5-(3-(difluoromethyl)-8-methyl-[1,2,4]triazolo[4,3-a]pyridin-6-yl)-2-(6-methoxypyridin-3-yl)-5,6-dihydropyrrolo[3,4-d]imidazol-4(1H)-one] | 47 | 21 | 202 | > 37000 | 73.2 | 23.5 | 77 | >10000 | 111.5 | 179
5 | COc1ncc(-c2nc3c(n2C(C)C)C(c2ccc(Cl)cc2)N(c2cc(C)c4nnc(C(F)F)n4c2)C3=O)c(OC)n1 (stereo not shown) [Example 143, 6-(4-chlorophenyl)-5-(3-(difluoromethyl)-8-methyl-[1,2,4]triazolo[4,3-a]pyridin-6-yl)-2-(2,4-dimethoxypyrimidin-5-yl)-1-isopropyl-5,6-dihydropyrrolo[3,4-d]imidazol-4(1H)-one] | 34 | 18 | 44 | > 37000 | 9.19 | 19 | 11.3 | >10000 | 16.1 | 30.65
6 | COc1cc(C(F)(F)F)ccc1-c1nc2c(n1C(C)C)C(c1ccc(Cl)cc1)N(c1cc(C)c3nnc(C(F)F)n3c1)C2=O (stereo not shown) [Example 144, 6-(4-chlorophenyl)-5-(3-(difluoromethyl)-8-methyl-[1,2,4]triazolo[4,3-a]pyridin-6-yl)-1-isopropyl-2-(2-methoxy-4-(trifluoromethyl)phenyl)-5,6-dihydropyrrolo[3,4-d]imidazol-4(1H)-one] | 26 | 22 | 116 | > 37000 | 30.8 | 23 | 46.2 | >10000 | 46.9 | 92.95
7 | Cc1cc(N2C(=O)c3nc(C4CC4)n(C(C)C)c3C2c2ccc(Cl)cc2)cn2c(C(F)F)nnc12 (stereo not shown) [Example 145, 6-(4-chlorophenyl)-2-cyclopropyl-5-(3-(difluoromethyl)-8-methyl-[1,2,4]triazolo[4,3-a]pyridin-6-yl)-1-isopropyl-5,6-dihydropyrrolo[3,4-d]imidazol-4(1H)-one] | 54 | 29 | 70.2 | > 37000 | 14 | 28 | 22.2 | >10000 | 26.95 | 47.6
8 | Cc1cc(N2C(=O)c3nc(C)n(C(C)C)c3[C@H]2c2ccc(Cl)cc2)cn2c(C(F)F)nnc12 [Example 146, (R)-6-(4-chlorophenyl)-5-(3-(difluoromethyl)-8-methyl-[1,2,4]triazolo[4,3-a]pyridin-6-yl)-1-isopropyl-2-methyl-5,6-dihydropyrrolo[3,4-d]imidazol-4(1H)-one] | 20 | 12 | 46.9 | > 37000 | 9.57 | < 11 | 11 | >10000 | 15.05 | 29.75

Continued, in another order:

Row | IC50 [1] [nM] | IC50 [2] [nM] | GI50 [3] [nM] | IC50 [4] [nM] | GI50 [5] [nM] | IC50 [6] [nM] | GI50 [7] [nM] | SMILES | K-562 TGI [3] [nM] | MV-4-11 TGI [5] [nM] | THP-1 TGI [7] [nM]
9 | 60 | 44 | 52 | 34300 | 8.12 | 13 | 11.8 | Cc1cc(N2C(=O)c3nc(C4=CCOCC4)n(C(C)C)c3C2c2ccc(Cl)cc2)cn2c(C(F)F)nnc12 (stereo not shown) [Example 147, 6-(4-chlorophenyl)-5-(3-(difluoromethyl)-8-methyl-[1,2,4]triazolo[4,3-a]pyridin-6-yl)-2-(3,6-dihydro-2H-pyran-4-yl)-1-isopropyl-5,6-dihydropyrrolo[3,4-d]imidazol-4(1H)-one] | >10000 | 16.25 | 33.55
10 | 36 | 22 | 69.5 | > 37000 | 6.47 | 23 | 9.99 | COc1ncccc1-c1nc2c(n1C(C)C)C(c1ccc(Cl)cc1)N(c1cc(C)c3nnc(C(F)F)n3n1)C2=O (stereo not shown) [Example 148, 6-(4-chlorophenyl)-5-(3-(difluoromethyl)-8-methyl-[1,2,4]triazolo[4,3-b]pyridazin-6-yl)-1-isopropyl-2-(2-methoxypyridin-3-yl)-5,6-dihydropyrrolo[3,4-d]imidazol-4(1H)-one] | >10000 | 13.1 | 24.95
11 | 22 | 21 | 148 | > 37000 | 26.5 | 16 | 33.3 | COc1ccc(-c2nc3c(n2C(C)C)C(c2ccc(Cl)cc2)N(c2cc(C)c4nnc(C(F)F)n4n2)C3=O)cn1 (stereo not shown) [Example 149, 6-(4-chlorophenyl)-5-(3-(difluoromethyl)-8-methyl-[1,2,4]triazolo[4,3-b]pyridazin-6-yl)-1-isopropyl-2-(6-methoxypyridin-3-yl)-5,6-dihydropyrrolo[3,4-d]imidazol-4(1H)-one] | >10000 | 43.5 | 83.9
12 | 94 | 39 | 75.3 | > 37000 | 9.63 | 38 | 17.3 | Cc1cc(N2C(=O)c3nc(C)n(C(C)C)c3C2c2ccc(Cl)cc2)nn2c(C(F)F)nnc12 (stereo not shown) [Example 150, 6-(4-chlorophenyl)-5-(3-(difluoromethyl)-8-methyl-[1,2,4]triazolo[4,3-b]pyridazin-6-yl)-1-isopropyl-2-methyl-5,6-dihydropyrrolo[3,4-d]imidazol-4(1H)-one] | >10000 | 24.2 | 46.4
13 | 14 | 14 | 24.1 | 13900 | 3.73 | 11 | 6.85 | COc1ncccc1-c1nc2c(n1C(C)C)[C@@H](c1ccc(Cl)cc1)N(c1cc(C)c3nnc(C(F)F)n3c1)C2=O [Example 151, (R)-6-(4-chlorophenyl)-5-(3-(difluoromethyl)-8-methyl-[1,2,4]triazolo[4,3-a]pyridin-6-yl)-1-isopropyl-2-(2-methoxypyridin-3-yl)-5,6-dihydropyrrolo[3,4-d]imidazol-4(1H)-one] | >10000 | 8.015 | 17.45
